Results on one substance are retold here after patent US10259852B2, “Conjugate comprising P21 protein for the treatment of cancer” (ANASTASIS BIOTEC LIMITED, priority 2005, dated 2019).

One experiment has as its system ASPC1. Briefly: Cell translocation experiment. Type of experiment: cell-based, human. As to conditions: incubated 10 and 60 min, various dilutions, 37° C. How it is done:
(§1) The production of the fusion protein allowed a cell translocation experiment to be performed, to test the ability of the antennapedia-containing fusion protein to translocate across biological membranes. Two cell lines were used in this experiment, ASPC1 and HeLa (ASPC1—human pancreatic adenocarcinoma, HeLa—human cervical adenocarcinoma). The protein was incubated for 10 and 60 min on cells in various dilutions at 37° C. Translocation of the fusion protein was evident in both cell lines, even after only ten minutes of incubation.

A further experiment relates to HeLa. As to the kind of experiment: Cell translocation experiment. The class given is cell-based, human. As to conditions: incubated 10 and 60 min, various dilutions, 37° C. How it is done: as §1

With “P21 protein: P21 tumour suppressor protein expressed alone, without translocation factor; human P21 is SEQ ID NO:1”, the Translocation across cells entry in the experiment with ASPC1 and with HeLa was “did not appear to translocate” each time.
